According to paper PMC4624142, “Purification and characterisation of intracellular alpha-galactosidases from Acinetobacter sp” (3 Biotech, 2015):

Tests used:
Assay type in all cases: biochemical, Acinetobacter sp.
Settings in all cases: 20 mM Tris pH 7.0, 50 °C; unit mM ml^−1 [sic]
[1] = system: T1, alpha-galactosidase II (Ag-II); assay: p-nitrophenol release at […] nm, Lineweaver-Burk
T1 construct: native intracellular enzyme purified from Acinetobacter sp. isolate G1 (soil, sugarcane industry, Sangareddy, India); 37 kDa, monomer

[2] = system: T2, alpha-galactosidase I (Ag-I); assay: p-nitrophenol release at […] nm, Lineweaver-Burk
T2 construct: native intracellular enzyme purified from Acinetobacter sp. isolate G1 (soil, sugarcane industry, Sangareddy, India); 65 kDa, monomer

[3] = system: T1, alpha-galactosidase II (Ag-II); assay: reducing sugar (DNS, […] nm), Lineweaver-Burk
[4] = system: T2, alpha-galactosidase I (Ag-I); assay: reducing sugar (DNS, […] nm), Lineweaver-Burk

SMILES | Michaelis constant (K m) mM ml^-1 [1] [mM ml^−1] | Michaelis constant (K m) mM ml^-1 [2] [mM ml^−1] | Michaelis constant (K m) mM ml^-1 [3] [mM ml^−1] | Michaelis constant (K m) mM ml^-1 [4] [mM ml^−1]
O=[N+]([O-])c1ccc(O[C@H]2O[C@H](CO)[C@H](O)[C@H](O)[C@H]2O)cc1 [ρNPGal, p-Nitrophenyl-α-D-galactopyranoside] | 0.68 | 0.33 |  | 
OC[C@H]1O[C@H](OC[C@H]2O[C@H](O[C@]3(CO)O[C@H](CO)[C@@H](O)[C@@H]3O)[C@H](O)[C@@H](O)[C@@H]2O)[C@H](O)[C@@H](O)[C@H]1O [Raffinose] |  |  | 0.74 | 3.26
